Data: patent US7238689B2, “Isoxazoline derivative and herbicide comprising the same as active ingredient” (Ihara Chemical Industry Co., Ltd., priority 2001, dated 2007)

Tests used:
[1] = tested on: Echinochloa crus-galli (L.) Beauv. var. crus-galli; assay: Herbicidal effect by upland foliage treatment; format: in vivo; parameters: scale not given here; conditions: active ingredient 1000 g/ha, examined at 14th day from treatment
Procedure, shortened: (§1)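 Two-week-old greenhouse plants in sand were sprayed over the whole foliage with water-diluted wettable powder at 1,000 liters per hectare, giving 1,000 g active ingredient per hectare. Herbicidal effect scored on a rating standard at day 14 after treatment.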

[2] = tested on: Setaria viridis (L.) Beauv.; assay: Herbicidal effect by upland foliage treatment; format: in vivo; parameters: scale not given here; conditions: active ingredient 1000 g/ha, examined at 14th day from treatment
Procedure, shortened: as §1

[3] = tested on: Echinochloa oryzicola Vasing; assay: Herbicidal effect by paddy field soil treatment; format: in vivo; parameters: scale not given here; conditions: wettable powder, active ingredient 1000 g/ha, examined at the 21st day from the treatment
Procedure, shortened: (§2)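 Seeds sown in puddled paddy soil under 3 cm of water; the next day wettable powders diluted in water were dropped onto the water surface at 1,000 g active ingredient/ha. Plants grown in a greenhouse, with herbicidal effect scored on day 21 against a rating standard.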

[4] = tested on: Monochoria vaginalis (Murm. f.) Presl var. plantaginea (Roxb.) Solms-Laub.; assay: Herbicidal effect by paddy field soil treatment; format: in vivo; parameters: scale not given here; conditions: wettable powder, active ingredient 1000 g/ha, examined at the 21st day from the treatment
Procedure, shortened: as §2

[5] = tested on: Echinochloa crus-galli (L.) Beauv. var. crusgalli; assay: Herbicidal effect by upland field soil treatment; format: in vivo; parameters: scale not given here; conditions: active ingredient 1000 g/ha, examined at 21st day from treatment
Text: (§3) An upland field soil was filled in a plastic pot of 80 cm^2. Seeds of Echinochloa crus-galli (L.) Beauv. var. crusgalli and Setaria viridis (L.) Beauv. were sowed, followed by covering with the same soil. […] Then, breeding was made in a greenhouse, and the herbicidal effect of each wettable powder was examined at the 21st day from the treatment in accordance with the standard shown in Table 21.

[6] = tested on: Setaria viridis (L.) Beauv.; assay: Herbicidal effect by upland field soil treatment; format: in vivo; parameters: scale not given here; conditions: active ingredient 1000 g/ha, examined at 21st day from treatment
Text: as §3

| melting point | SMILES | herbicidal effect (index per standard of Table 21), Echinochloa curs-galli (L.) Beauv. Var. crus-galli [1] | herbicidal effect (index per standard of Table 21), Setaria viridis (L.) Beauv. [2] | Herbicidal effect index, Echinochloa oryzicola Vasing [3] | Herbicidal effect index, Monochoria vaginalis (Burm. F.) Presl var. plantaginea (Roxb.) Solms-Laub. [4] | herbicidal effect (index per standard of Table 21), Echinochloa curs-galli (L.) Beauv. Var. crus-galli [5] | herbicidal effect (index per standard of Table 21), Setaria viridis (L.) Beauv. [6] |
| --- | --- | --- | --- | --- | --- | --- | --- |
| 136 to 137 °C | CC1(C)CC(S(=O)(=O)Cc2c(Cl)nn(C(F)F)c2C(F)(F)F)=NO1 [3-0011, 3-(3-chloro-1-difluoromethyl-5-trifluoromethyl-1H-pyrazol-4-ylmethylsulfonyl)-5,5-dimethyl-2-isoxazoline] | 5 | 4 | – | – | – | – |
| 126 to 127 °C | CC1(C)CC(S(=O)(=O)Cc2c(C(F)(F)F)nn(C(F)F)c2Cl)=NO1 [3-0010, 3-(5-chloro-1-difluoromethyl-3-trifluoromethyl-1H-pyrazol-4-ylmethylsulfonyl)-5,5-dimethyl-2-isoxazoline] | 5 | 4 | – | – | – | – |
| 105 to 108 °C | Cn1nc(C(F)(F)F)c(CS(=O)(=O)C2=NOC(C)(C)C2)c1C#N [3-0016, 3-(5-cyano-1-methyl-3-trifluoromethyl-1H-pyrazol-4-ylmethylsulfonyl)-5,5-dimethyl-2-isoxazoline] | – | – | 5 | 5 | 5 | 5 |
| 113 to 114 °C | Cn1nc(C(F)(F)F)c(CS(=O)(=O)C2=NOC(C)(C)C2)c1OC1CCCC1 [3-0015, 3-(5-cyclopentyloxy-1-methyl-3-trifluoromethyl-1H-pyrazol-4-ylmethylsulfonyl)-5,5-dimethyl-2-isoxazoline] | 5 | 4 | 5 | 5 | 5 | 5 |
| 95 to 96 °C | CON=C(C)c1c(C)sc(C)c1CS(=O)(=O)C1=NOC(C)(C)C1 [2-0001, 5,5-dimethyl-3-[2,5-dimethyl-4-(1-methoxyiminoethyl)-thiophen-3-ylmethylsulfonyl]-2-isoxazoline] | 5 | 4 | 5 | 5 | 5 | 5 |
| 41 to 42 °C | CC1(C)CC(SCc2c(C(F)(F)F)nn(C(F)F)c2Cl)=NO1 [3-0008, 3-(5-chloro-1-difluoromethyl-3-trifluoromethyl-1H-pyrazol-4-ylmethylthio)-5,5-dimethyl-2-isoxazoline] | 4 | 4 | – | – | 5 | 5 |
| 113 to 114 °C | COc1c(CS(=O)(=O)C2=NOC(C)(C)C2)c(C(F)(F)F)nn1C [3-0013, 5,5-dimethyl-3-(5-methoxy-1-methyl-3-trifluoromethyl-1H-pyrazol-4-ylmethylsulfonyl)-2-isoxazoline] | 5 | 5 | 5 | 5 | 5 | 5 |
